{"source": "patent US20070003621A1", "about": "“Dosage forms for movement disorder treatment” (Spherics, Inc., priority 2005, published 2007)", "origin": "cited, not measured here", "conditions": "doses of 400 mg per day", "data": [{"smiles": "C[C@@](Cc1ccc(O)c(O)c1)(NN)C(=O)O", "note": "[carbidopa]", "values": [{"measurement": "adverse effects", "result": "fails to elicit adverse effects"}]}]}
